Test results reported in patent US20250195624A1, “USE OF SUPEROXIDE DISMUTASE FOR THE TREATMENT AND/OR PREVENTION OF ALLERGIC ASTHMA” (ISOCELL S.A.S., priority 2022, published 2025).

Experiments:
Format in all cases: in vivo, Balb/cj mice
[1] = test system: house dust mite (HDM) allergy induced mice; assay: Respiratory function by flexiVent in response to methacholine, HDM allergy induced mice; conditions: asthmatic mice, increasing doses of methacholine
Protocol: (§1) An allergic asthma murine model involving exposure to house dust mites was used. This model comprises a preliminary percutaneous sensitisation challenge phase of Balb/cj mice with a whole house dust mite extract (days 0, 7, 14, and 21), followed by two intranasal stimulations (days 27 and 34) which induced the symptoms of allergy-induced asthma in the test subjects. The efficacy of the Glisodin formulations was evaluated by daily administration to the mice via force feeding of 5 mg of the Glisodin formulation diluted in water, starting at 24 hours after the first intranasal sensitisation challenge and continuing for 5 consecutive days every week for 5 weeks. For comparative purposes, the same protocol was used to evaluate the effect of a combined administration of Glisodin with salbutamol, in which case the salbutamol was administered for 30 seconds at a solution concentration of 5 mg/ml as a nebulized aerosol 1 hour before each sensitisation challenge.
Respiratory function in the mice was analysed using the flexi Vent™ system available from SciReq and the results illustrated in FIGS. 7 and 8. […] Respiratory function was measured using the flexiVent™ system in response to increasing doses of the broncho-constrictor methacholine. […]
The efficacy of Glisodin was also analysed in combination with salbutamol, a B2-adrenergic receptor agonist having a bronchodilatory and anti-inflammatory activity, as used in the treatment of asthma attacks, the results of which are illustrated in FIG. 8. […] In the charts, CTL or control indicates naïve untreated, untreated asthmatic mice (HDM), asthmatic mice having received salbutamol treatment (Salbutamol), asthmatic mice having received salbutamol and wheat Glisodin (Salbu Wheat) or asthmatic mice having received salbutamol with melon Glisodin (Salbu Melon), all measured by flexi Vent in response to increasing doses of the bronchoconstrictor methacholine. […]

IL-5, IL-13, IL-17 = assay: Cytokine response in supernatant of BAL; conditions: asthmatic mice
Protocol: as §1
Cytokines are produced in response to antigens present at the surface of foreign bodies or by molecules considered as foreign by the immune. […] In the present case, Th2 inflammatory pathway cytokines, for example, IL-5 and IL-13, and Th17 cytokines, such as IL-17 were measured in the supernatant of BAL of the various mouse groups, and the results illustrated in FIG. 12, with application of ANOVA analysis of the data using the Tukey test leading to a confidence interval as indicated on the charts established: *=p<0.05, ** p<0.01 and *** p<0.001, in a population n=6 to 8 mice per group.

[2] = test system: cell population from bronchoalveolar lavages (BAL); assay: Inflammatory response: BAL cell population by flow cytometry, HDM allergy induced mice; conditions: asthmatic mice
Protocol: as §1
At the end of the study protocol on mice, bronchoalveolar lavage (BAL) were taken and the cell population analysed using flow cytometry. […] ANOVA analysis of the data using the Tukey test was carried out and a confidence interval as indicated on the charts established: *=p<0.05, ** p<0.01 and *** p<0.001, in a population of n-6 to 8 mice per group.

[3] = test system: IgE specific to house dust mites and MCP-1; assay: Humoral response: serum HDM-specific IgE by ELISA and MCP-1 production; conditions: asthmatic mice
From the text: An allergic asthma murine model involving exposure to house dust mites was used. This model comprises a preliminary percutaneous sensitisation challenge phase of Balb/cj mice with a whole house dust mite extract (days 0, 7, 14, and 21), followed by two intranasal stimulations (days 27 and 34) which induced the symptoms of allergy-induced asthma in the test subjects. […] For comparative purposes, the same protocol was used to evaluate the effect of a combined administration of Glisodin with salbutamol, in which case the salbutamol was administered for 30 seconds at a solution concentration of 5 mg/ml as a nebulized aerosol 1 hour before each sensitisation challenge. In allergic asthma, once the antigen has been recognised, clonal selection and proliferation taken place, followed by B lymphocyte differentiation into plasmocytes, the formation of the immune complex between IgE and allergens leads to degranulation of the effecting cells and liberation of chemical mediators such as histamine and MCP-1. In order to evaluate the effect of Glisodin treatment, with respect to initiation of an asthma attack, serum levels of IgE were measured by ELISA for IgE specific to house dust mites and measurements made of the levels of production of MCP-1. […]

[4] = test system: Th1, Th2 and Th17 lymphocyte; assay: Immune response: lung cells restimulated with whole dust mite extract, flow cytometry; conditions: lungs of asthmatic mice
Protocol: as §1
At the end of the treatment protocol, mice lungs were harvested, ground, restimulated with whole dust mite extract and the resulting cell populations analysed using flow cytometry. The results are illustrated in FIG. 10, in which the following cell types were counted: Th1 (CD3+, CD4+, IFNγ+), Th2 (CD3+, CD4+, IL-13+) and Th17 (CD3+, CD4+, IL-17+). […]

[5] = test system: house dust mite (HDM) allergy induced mice; assay: Tissular degradation: histological analysis of lung samples (eosin and hematoxylin), scoring system; conditions: double blind scoring
Protocol: as §1, with “For comparative purposes, the same protocol was used to evaluate the effect of a combined administration of Glisodin with salbutamol, in which case the salbutamol was administered for 30 seconds at a solution concentration of 5 mg/ml as a nebulized aerosol 1 hour before each sensitisation challenge.” left out
In situ evaluation of inflammation, bronchoconstriction and asthma severity were carried out via histological analysis, through staining of lung samples from the various mouse groups with eosin and hematoxylin, with a population of 6 mice per group, the images being shown at a scale of 100 μm, as illustrated in FIG. 13. The degree of tissular degradation was assessed in a double blind protocol by two independent assessors using a scoring system. […]

For `CC(C)(C)NCC(O)c1ccc(O)c(CO)c1` (stereo not shown) [salbutamol], the compliance [1] was “significant effect on the improvement”, the elastance [1] was “significant effect on the improvement” and the “resistance of the airways” value [1] was “significant effect on the improvement”. The IL-5 count (IL-5, IL-13, IL-17) was “effective in reducing”, the IL-17 count (IL-5, IL-13, IL-17) was “tendency to decrease” and the “level of IL-13” value (IL-5, IL-13, IL-17) was “neither salbutamol nor the various Glisodin formulations tested were able to reduce”. For the same compound, the number of eosinophils ([2]; BAL) was “reduction”, the number of lymphocytes ([2]; BAL) was “reduction” and the “total number of cells in the BAL and lungs” value ([2]; vs untreated asthmatic mice) was “reduction”. For the same compound, the “level of MCP-1 produced” value [3] was “reduced”, the “level of HDM-specific IgE” value ([3]; serum) was “able to reduce” and the Th1 lymphocyte numbers [4] was “reduction”. The “severity of the asthma (degree of tissular degradation, histological score)” value [5] was “reduction”.
